According to patent publication US8790654B2, “Glycosylceramide adjuvant for saccharide antigens” (Novartis AG, priority 2004, dated 2014):

Test system: CRM protein carrier
Assay: CRM-specific Ig titre in mice immunised with MenC-CRM conjugate with or without α-GalCer
Format: in vivo
Conditions: MenC-CRM conjugate and α-GalCer, compared with conjugate alone; 2wp2 and 2wp3
Protocol: C) Immunisation schedule for mice with different polysaccharides, plain, conjugated or admixed with protein carriers, with and without α-GalCer. Ten groups of wild-type C57BL/6 mice were primed on day 0 with: 1) PBS, 2) 0.1 μg with α-GalCer, 3) 10 μg MenC polysaccharide, 4) 20 μg CRM protein carrier, 5) 30 μg of a MenC-CRM conjugate, 6) 10 μg MenC polysaccharide admixed with CRM protein carrier, or the compositions in 3)-6) and α-GalCer (groups 7-10). Mice were boosted two and four weeks after they were primed with the same composition with which they were primed. Mice were bled 2, 4 and 6 weeks after initial priming (2wp1, 2wp2 and 2wp3) and the levels of antibodies against both the MenC polysaccharide and the CRM carrier were measured.
FIG. 5: α-GalCer enhances the specific antibody response against both the MenC polysaccharide and the CRM protein carrier in a MenC-CRM conjugate. Wild-type mice were primed with 10 μg MenC polysaccharide, 20 μg CRM protein carrier, 10 μg MenC polysaccharide admixed with CRM protein carrier (MenC+CRM), or 30 μg of a MenC-CRM conjugate, or the same compositions with α-GalCer. Mice were boosted two and four weeks after they were primed with the same composition with which they were primed.

In the case of `CCCCCCCCCCCCCCCCCCCCCCCCCC(=O)N[C@@H](CO[C@H]1O[C@H](CO)[C@H](O)[C@H](O)[C@H]1O)[C@H](O)[C@H](O)CCCCCCCCCCCCCC` [α-GalCer, α-galactosylceramide], the “CRM-specific Ig titre” value is reported as “enhanced”.
